Legend:
arterial blood pressure = test system: arterial blood pressure; set-up: species or system male SD rat; conditions: rat, in vivo
Procedure: (Lower limbs peripheral circulation disorder model due to hind leg cooling: Model of Raynaud's disease) […] TP-200T, trade name) through a catheter attached to the artery. […] After the operation, at the time that the state became stable, the left hind leg was exposed to a perfused solution at 10° C. to decrease the femoral arterial blood flow. […] In the case of Beraprost Na, continuous injection in an amount of […] was carried out after 30 minutes from cooling. […] The present model is disclosed, for example, in Nishio et al, "Effect of Beraprost Sodium on Peripheral Circulatory Disturbances Induced by Various Stimuli", Arzneim.-Forsch./Drug Res., 39 (II), Nr. 10 (1989), pp. 1229-1234. Note particularly the section "2.4. Sphygmometry in rat hind paw", at page 1230.

femoral artery = assay: Femoral arterial blood flow, hind leg cooling model of Raynaud's disease (Experimental Example 5); format: in vivo, male SD rat
Procedure: (Lower limbs peripheral circulation disorder model due to hind leg cooling: Model of Raynaud's disease)
A catheter was inserted into left common carotid artery of a male SD rat (one group consisting of 5 rats) under anesthesia, and the arterial blood pressure was measured with a standard pressure transducer (manufactured by Nihon Koden. TP-200T, trade name) through a catheter attached to the artery. After isolating the left femoral artery from the peripheral connective tissue, a flow probe (HDP 10-20R: F 1.0 mm) of a Doppler blood flow meter (manufactured by Crystal Biotec Co., PD20, trade name) was attached thereto and was connected to the Doppler blood flow meter to measure the artery blood flow. After the operation, at the time that the state became stable, the left hind leg was exposed to a perfused solution at 10° C. to decrease the femoral arterial blood flow. After 30 minutes, 1 ml/kg of a 0.9% NaCl solution or 300 μg/kg of the test compound A was intravenously administered and the state was observed. In the case of Beraprost Na, continuous injection in an amount of […] was carried out after 30 minutes from cooling. The compounds to be used were each dissolved in a 0.9% NaCl solution.
The present model is disclosed, for example, in Nishio et al, "Effect of Beraprost Sodium on Peripheral Circulatory Disturbances Induced by Various Stimuli", Arzneim.-Forsch./Drug Res., 39 (II), Nr. 10 (1989), pp. 1229-1234. Note particularly the section "2.4. Sphygmometry in rat hind paw", at page 1230.

CC#CCC(C)[C@H](O)/C=C/[C@@H]1[C@H]2c3cccc(CCCC(=O)O)c3O[C@H]2C[C@H]1O (some centres unmarked) [Compound J, Beraprost Na, reference compound]
Mean Arterial Pressure change (arterial blood pressure): 1.20 Δ mmHg
Femoral Arterial Blood Flow change (femoral artery; 0 min (before cooling and administration; 30 min = 0)): 1.116 Δ ml/min
Femoral Arterial Blood Flow change (femoral artery; 40 min, given at 30 min: A 300 μg/kg i.v., J 0.3 μg/kg/ml continuous injection): 0.252 Δ ml/min
Femoral Arterial Blood Flow change (femoral artery; 50 min, given at 30 min: A 300 μg/kg i.v., J 0.3 μg/kg/ml continuous injection): 0.304 Δ ml/min
Femoral Arterial Blood Flow change (femoral artery; 60 min, given at 30 min: A 300 μg/kg i.v., J 0.3 μg/kg/ml continuous injection): 0.368 Δ ml/min
Femoral Arterial Blood Flow change (femoral artery; 70 min, given at 30 min: A 300 μg/kg i.v., J 0.3 μg/kg/ml continuous injection): 0.436 Δ ml/min
Femoral Arterial Blood Flow change (femoral artery; 80 min, given at 30 min: A 300 μg/kg i.v., J 0.3 μg/kg/ml continuous injection): 0.372 Δ ml/min
Femoral Arterial Blood Flow change (femoral artery; 90 min, given at 30 min: A 300 μg/kg i.v., J 0.3 μg/kg/ml continuous injection): 0.344 Δ ml/min
